Measurements: PubChem BioAssay AID179 (DTP/NCI, 2004)
pEC50, pIC50: −log10 of the molar value. Activity calls are given as the source filed them.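 The calls were made as follows: active = compounds giving half or more protection of infected cells from virus-caused growth loss, again on retest; inactive = the rest.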 *1 amine or outer side, *2 acyl side, *3 side chain or, on linkers, in order; H or OH if unused. Where a SMILES comes first, the peptide text is derived from it. [ ]: non-standard residue; d: D form. X21 = NC(=O)CCC(CN[*:1])C(=O)[*:2]

Tested on: CEM cells HIV-1 protection, formazan growth assay
Assay: NCI AIDS Antiviral Assay
Conditions: for pIC50: measured here: growth of uninfected CEM cells
Method in brief: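 Protection of CEM cells against HIV-1 measured as cell growth via soluble formazan read-out, with five concentrations tested on both infected and uninfected cells; failure to protect may reflect toxicity.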

Row | Structure (SMILES) | pEC50 | pIC50 | outcome
1 | O=C(C/C(=N/O)C(=O)NC1=C(Cl)C(=O)c2ccccc2C1=O)CC(c1ccccc1)c1c(O)c2ccccc2oc1=O (stereo not drawn) | < 4.91 | 5.18 | 
2 | CCC[CH2][Sn]1([CH2]CCC)[O]CC(COc2c(Cl)cc(Cl)cc2Cl)[O]1 (stereo not drawn) | < 5.40 | 5.73 | 
3 | COc1cc(C2C(C(=O)Nc3cc(F)c(F)cc3F)=C(C)NC(C)=C2C(=O)Nc2cc(F)c(F)cc2F)ccc1O | < 4.49 | < 4.49 | 
4 | C=CCCC(OCOCCOC)c1cc(C)c(O[Si](C)(C)C(C)(C)C)c(C)c1 (stereo not drawn) | < 4.30 | 4.53 | 
5 | O=c1c(O)c(-c2cc(O)c(O)c(O)c2)oc2cc(O)ccc12 | < 3.08 | 4.93 | 
6 | COC(=O)/C=C1\C(CO[Si](C)(C)C(C)(C)C)OC(n2cc(C)c(=O)n(C)c2=O)C1O[Si](C)(C)C(C)(C)C (stereo not drawn) | < 3.70 | 4.68 | 
7 | COc1cc(/C=C2\CCC(C)c3c2nc(N)c(C#N)c3-c2cc(OC)c(OC)c(OC)c2)cc(OC)c1OC (stereo not drawn) |  |  | inactive
8 | Cc1ccnc(NS(=O)(=O)c2ccc(NC(=O)c3ccc4nc5ccccc5c(Nc5ccc(S(=O)(=O)Nc6nccc(C)n6)cc5)c4c3)cc2)n1 | < 3.70 | 4.08 | 
9 | COC(=O)C1CC2(C)C=CC1N(C(=O)OCc1ccccc1)C2 (stereo not drawn) | 4.20 | 3.99 | 
10 | Cc1cc2c(CC(=O)O)[nH]nc2c(C(=O)O)c1C | < 3.00 | < 3.00 | 
11 | O=C(O)C12C3CCC(C3)C1(C(=O)O)C1CCC2C1 (stereo not drawn) | < 3.00 | < 3.00 | 
12 | O=C(NCC(C(=O)OCc1ccccc1)C(=O)OCc1ccccc1)OCc1ccccc1 | < 3.70 | 4.20 | 
13 | O=C1C[N+]2(Cc3ccccc3)CCC1CC2 | < 3.07 | < 3.07 | 
14 | CC(C)c1ccc(Cc2ccc(C(C)C)c(NC(=O)C(=O)Cc3cnc4ccccc4n3)c2C(C)C)c(C(C)C)c1NC(=O)C(=O)Cc1cnc2ccccc2n1 | < 4.88 | < 4.88 | 
15 | O=S(=O)(O)c1ccc2cc(S(=O)(=O)O)ccc2c1 |  |  | inactive
16 | Cn1c2c(c3ccccc31)CCN1C[C@@H]3CCCC[C@H]3C[C@@H]21 | < 4.00 | 5.79 | 
17 | CNC(=O)N(C(C)(C)C)S(=O)(=O)c1ccc(Cl)cc1 |  |  | inactive
18 | CCC(C)C(NC(=O)C(CCC(N)=O)NC(=O)C1CCCN1)C(=O)NC(C(=O)NC(CC(C)C)C(=O)NC(Cc1c[nH]c2ccccc12)C(=O)NCC(CCC(N)=O)C(=O)NC(CCCN=C(N)N)C(=O)N1CCCC1C(=O)NC(CC(C)C)C(=O)O)C(C)O (stereo not drawn) (H-PQITLW[X21]RPL-OH; configuration not given here) |  |  | inactive
19 | O=C1OCC/C1=C\c1ccc(O)cc1 | < 2.88 | 3.62 | 
20 | CCCCCC(/C=C/[C@@H]1[C@H]2CC(=O)O[C@H]2C[C@H]1N1CCOCC1)OC1CCCO1 (stereo partly drawn) | < 3.50 | < 3.50 | 
21 | CCOC(=O)NC(Nc1ccc(C)cc1)(C(F)(F)F)C(F)(F)F | < 3.70 | < 3.70 | 

Row | Structure (SMILES) | pEC50 | pIC50 | outcome
22 | O=C(O)C/C=C(\C(=O)O)N1C(=O)c2ccccc2C1=O |  |  | inactive
23 | O=C(NC1C=Nc2ccc([N+](=O)[O-])cc2NC1=O)c1cc(Cl)cc([N+](=O)[O-])c1 (stereo not drawn) | < 3.35 | 3.81 | 
24 | Cc1ncc(CC#N)c2c1OC(C)(C)OC2 | < 2.94 | < 2.94 | 
25 | COc1cc(C(c2ccc(N(Cc3ccccc3)Cc3ccccc3)cc2NC(C)=O)c2ccc(N(Cc3ccccc3)Cc3ccccc3)cc2NC(C)=O)ccc1O | < 3.70 | < 3.70 | 
26 | CN(C)CCn1c(=O)c2ccc(NCCNCCO)c3c(=O)c4cc(O)ccc4n(c1=O)c23 | < 5.70 | 6.39 | 
27 | CC(=O)N1CCCN(C)/C1=N/[N+](=O)[O-] | < 3.70 | < 3.70 | 
28 | Cc1cc(=O)n2nc(CN3CCCCC3)sc2n1 | < 3.70 | 3.76 | 
29 | CC(=O)Nc1cccc(N2C(=O)/C(=C\c3cccc(Oc4ccccc4)c3)SC2c2ccccc2)c1 (stereo not drawn) | < 3.70 | 4.51 | 
30 | Cc1cc2oc3ccccc3c(=O)c2c(C)c1Cl | < 4.55 | < 4.55 | 
31 | CN(C)C(C1=C(O)C(c2ccccc2)N(c2ccccc2)C1=O)N1CCOCC1 (stereo not drawn) |  |  | inactive
32 | Cn1c(=O)[nH]c(N2CCOCC2)c(C#N)c1=S | < 3.70 | < 3.70 | 
33 | O=C1CSc2ccccc2-n2cccc21 | < 3.68 | 3.98 | 
34 | CC1=NN(C(=O)c2ccccc2O)C(=O)/C1=C/c1ccc([N+](=O)[O-])cc1 | < 4.27 | 7.04 | 
35 | C/C(CN1C(=O)c2ccccc2C1=O)=N\NS(=O)(=O)c1cccc([N+](=O)[O-])c1 | < 3.21 | < 3.21 | 
36 | Cc1nnc2sc(N/N=C/c3ccccc3)nn12 | < 3.70 | < 3.70 | 
37 | COC1=CC(=O)c2nccc(C)c2C1=O |  |  | inactive
38 | O=C(Nc1ccc(C2=NCCN2)cc1)c1cc(C(=O)Nc2ccc(C3=NCCN3)cc2)ncn1 | 4.91 | 4.21 | 
39 | O=S1(=O)CC2(N3CCOCC3)CCCC21 (stereo not drawn) | < 2.97 | 3.64 | 
40 | CC(=O)NNc1nc(C)c(C(/C=C/c2ccc([N+](=O)[O-])cc2)=N/NC(N)=O)s1 | < 4.47 | < 4.47 | 
41 | FC(F)(F)c1nc(-c2ccccc2)oc1Sc1nnc(Sc2oc(-c3ccccc3)nc2C(F)(F)F)s1 |  |  | inactive
42 | COc1ccc2c(c1OC)C(=O)N1C2=Cc2c(cc3c(c2OC)OCO3)CC1N(C)C (stereo not drawn) | < 3.70 | 4.57 | 

Row | Structure (SMILES) | pEC50 | pIC50 | outcome
43 | CC(=O)n1c2ccc(Br)cc2c2nc3ccccc3nc21 | < 3.70 | < 3.70 | 
44 | COC(=O)c1cc2c(o1)Sc1ccccc1NC2=O | < 3.70 | < 3.70 | 
45 | CC(C)c1ccc(/C(O)=C/C(=O)C(=O)/C=C(/O)c2ccc(C(C)C)cc2)cc1 |  |  | inactive
46 | O=C(c1ccccc1)c1nc2ccc(Cl)cc2c2c1Cc1ccccc1-2 | < 5.53 | < 5.53 | 
47 | CC(C)c1cc2c(O)c(c1)Cc1cc(C(C)C)cc(c1O)Cc1cc(C(C)C)cc(c1O)Cc1cc(C(C)C)cc(c1O)C2 | < 5.20 | < 5.20 | 
48 | O=[N+]([O-])c1ccc2nncc(N3CC3)c2c1 |  |  | inactive
49 | CC1(C)NC(=O)C2(CC(O)C(O)C(OC(=O)c3ccccc3)C2)O1 (stereo not drawn) | < 3.58 | < 3.58 | 
50 | O=C1C2=C(CC3=C(C2)CS(=O)(=O)C3)C(=O)C2=C1CC1=C(C2)CS(=O)(=O)C1 | < 3.70 | 5.22 | 
51 | CC(=O)c1sc(Nc2nnc(-c3ccc(-c4nnc(Nc5nc(C)c(C(C)=O)s5)o4)cc3)o2)nc1C |  |  | inactive
52 | CCN(CCNc1ccc(C)c2sc3ccccc3c(=O)c12)CC(C)(C)O | < 3.70 | 5.10 | 
53 | CCOC(=O)C/C(N)=C(\C#N)C(=O)OCC |  |  | inactive
54 | CCOC(=O)C(Cc1cn(S(=O)(=O)c2ccc(C)cc2)cn1)P(=O)(OCC)OCC (stereo not drawn) | < 3.70 | < 3.70 | 
55 | O=[N+]([O-])c1ccc(OP(=O)(Oc2ccc([N+](=O)[O-])cc2)OP(=O)(Oc2ccc([N+](=O)[O-])cc2)Oc2ccc([N+](=O)[O-])cc2)cc1 | < 3.70 | 4.30 | 
56 | CC(C)CCCC(C)[C@H]1CCC2[C@@H]3CCC4Nc5[nH]ncc5C[C@]4(C)C3CC[C@@]21C (stereo partly drawn) |  |  | inactive
57 | Cc1cc(Cl)ccc1NC(=O)C1C(=O)N(c2ccc(Cl)cc2C)C(=O)/C1=N\N (stereo not drawn) |  |  | inactive
58 | CCOC(=O)c1c(NC(=O)c2ccc(OC)cc2)sc2c1CCCC2 | < 3.82 | < 3.82 | 
59 | Cc1ccc(-n2cc(-c3ccc(Cl)cc3)c3c(N/N=C4\SCC(=O)N4C)ncnc32)cc1 | < 3.70 | 5.08 | 
60 | CCc1c(O)c2c([nH]c1=O)SC(C)(C)CC2=NCC(C)C | < 4.94 | < 4.94 | 
61 | CC1(C)CC(=O)c2c(nc3ccc4ccccc4c3c2-c2ccc(NC(=O)CCC(=O)Nc3ccc(-c4c5c(nc6ccc7ccccc7c46)CC(C)(C)CC5=O)cc3)cc2)C1 | < 4.00 | < 4.00 | 
62 | O=C1/C(=C/c2ccc(OC(=O)c3ccccc3)cc2)CCC/C1=C\c1ccc(OC(=O)c2ccccc2)cc1 | < 4.00 | < 4.00 | 
63 | COc1ccc(OC)c(NC(=O)C2=C(C)NC(C)=C(C(=O)Nc3cc(OC)ccc3OC)C2c2ccccc2)c1 |  |  | inactive

Row | Structure (SMILES) | pEC50 | pIC50 | outcome
64 | CC(NC(=O)OCc1ccccc1)NC(=O)C(CC(=O)OC(C)(C)C)NC(=O)OC(C)(C)C (stereo not drawn) | < 3.70 | < 3.70 | 
65 | Clc1ccc(Cl)c(-c2nc3ccccc3[nH]2)c1 | < 4.01 | < 4.01 | 
66 | COC1CC(OC)C(O)C(CO)O1 (stereo not drawn) |  |  | inactive
67 | Cn1c2ccccc2c2n[nH]c(=S)nc21 | 4.26 | < 3.70 | 
68 | C/C(CC(=O)Nc1cc(C)ccc1C)=N/N=C(N)N | < 4.28 | < 4.28 | 
69 | CNC(=O)N(CCC#N)CCN(CCN(C(=O)NC)c1ccccc1)C(=O)NC | < 3.70 | < 3.70 | 
70 | CN1N=C(c2ccncc2)OC1c1cccc(C(F)(F)F)c1 (stereo not drawn) | < 3.70 | 4.35 | 
71 | CC(=O)CC(=O)Nc1ccccc1C(F)(F)F | < 3.69 | < 3.69 | 
72 | O=C1CC(=O)Nc2ccccc2N1 | < 3.70 | < 3.70 | 
73 | CC(C)n1nnnc1-c1ccccc1 | < 3.70 | < 3.70 | 
74 | COc1ccc(/C=C2\N=C3Sc4c(nc[nH]c4=O)N3C2=O)cc1 | < 3.70 | < 3.70 | 
75 | O=c1cc(-c2ccccc2)oc2cc(O)cc(O)c12 | < 4.06 | 4.42 | 
76 | CC1(C)C(=O)CC[C@@]2(C)C1CC[C@]1(C)C2CC=C2[C@@H]3C[C@](C)(C(=O)O)CC[C@]3(C)CCC21C (stereo partly drawn) | < 3.70 | 4.02 | 
77 | CN1C(=O)C(C(C)(C)C2SC(=S)N(C)C2=O)SC1=S (stereo not drawn) | < 3.70 | < 3.70 | 
78 | CC1CC2=C(S(=O)(=O)c3ccccc3)CC(S(=O)(=O)c3ccccc3)(S(=O)(=O)c3ccccc3)CC21 (stereo not drawn) | < 4.30 | < 4.30 | 
79 | CCOC(=O)N(CCCCCCNC(c1ccccc1)S(=O)(=O)O)c1ccccc1 (stereo not drawn) | < 3.70 | 5.74 | 
80 | Cc1ccc(S(=O)(=O)OC2C(O)C(CO)OC2n2c(Br)c(C(N)=O)c3c(N)ncnc32)cc1 (stereo not drawn) | < 3.70 | < 3.70 | 
81 | CCN(CC)CCCCC1CCN(CC(=O)N2c3ccccc3NC(=O)CC2C)CC1 (stereo not drawn) | < 3.60 | 4.41 | 
82 | COCC(O)COn1c(=O)c(C#N)[n+]([O-])c2ccccc21 (stereo not drawn) | < 3.70 | 4.52 | 
